≈ marks a conversion by molar mass, not a printed value. Calls of active or inactive are those of the source. The calls are words filed in the database; no cut-off is given here.
What was measured:
[1] = tested on: Staphylococcus aureus; test: Antibacterial activity against Staphylococcus aureus SA-1199B; type: functional
[2] = molecular target: T1, Quinolone resistance protein NorA (Staphylococcus aureus) (UniProt P0A0J7); test: Inhibition of NorA in Staphylococcus aureus SA-1199B assessed as potentiation of ciprofloxacin -mediated antibacterial activity by measuring maximal reduction in ciprofloxacin MIC
T1 sequence (whole entry): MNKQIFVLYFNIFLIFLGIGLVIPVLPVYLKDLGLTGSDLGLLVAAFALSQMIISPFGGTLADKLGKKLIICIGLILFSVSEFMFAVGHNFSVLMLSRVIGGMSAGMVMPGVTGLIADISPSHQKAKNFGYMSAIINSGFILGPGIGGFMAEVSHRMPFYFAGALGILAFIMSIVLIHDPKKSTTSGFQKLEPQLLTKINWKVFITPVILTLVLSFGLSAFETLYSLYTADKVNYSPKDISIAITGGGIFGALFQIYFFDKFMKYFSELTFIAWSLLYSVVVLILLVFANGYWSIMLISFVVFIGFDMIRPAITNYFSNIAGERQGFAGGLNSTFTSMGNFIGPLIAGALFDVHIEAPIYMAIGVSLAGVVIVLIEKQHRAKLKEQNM

[3] = tested on: Staphylococcus aureus; test: Antibacterial activity against Staphylococcus aureus ATCC 25923; type: functional
[4] = Toxicity in brine shrimp assessed as mortality at 1 mg/ml; settings: artemia salina, read-out: Activity
[5] = molecular target: T1, Quinolone resistance protein NorA (Staphylococcus aureus); test: Inhibition of NorA in staphylococcus aureus SA-1199B assessed as increase in fluorescence emission of ethidium bromide accumulation for 25 mins by fluorometric assays
[6] = molecular target: T1, Quinolone resistance protein NorA (Staphylococcus aureus); test: Inhibition of NorA in staphylococcus aureus SA-1199B assessed as ethidium bromide accumulation
[7] = molecular target: T1, Quinolone resistance protein NorA (Staphylococcus aureus); test: Inhibition of NorA in Staphylococcus aureus SA-1199B assessed as potentiation of norfloxacin-mediated antibacterial activity by measuring fold reduction in norfloxacin MIC
[8] = molecular target: T1, Quinolone resistance protein NorA (Staphylococcus aureus); test: Inhibition of NorA in Staphylococcus aureus SA-1199B assessed as potentiation of norfloxacin-mediated antibacterial activity by measuring fold reduction in ciprofloxacin MIC
[9] = molecular target: T1, Quinolone resistance protein NorA (Staphylococcus aureus); test: Inhibition of NorA in Staphylococcus aureus SA-1199B assessed as potentiation of norfloxacin-mediated antibacterial activity by measuring maximal reduction in norfloxacin MIC

In the case of `O=C1NC(=S)N/C1=C\c1ccccn1`, the MIC [1] is reported as ≥ 1020 µg/mL.

Work on `O=C1NC(=O)/C(=C/c2ccc(F)cc2)N1` yielded an MEC [2] of 64 µg/mL, an MIC [1] of 512 µg/mL (≈ 2480 µM) and an MIC [3] of 512 µg/mL (≈ 2480 µM). The mortality at 1 mg/ml [4] was 47%, the inhibition [5] was “Active” and the inhibition [6] was “Active”. The fold change (FC) [7] was 6.4, the fold change (FC) [8] was 3.2 and the MEC [9] was 64 µg/mL.

With `O=C1NC(=O)/C(=C/c2ccccn2)N1` the MIC [1] was ≥ 1020 µg/mL.

For `O=C1NC(=S)N/C1=C\c1cccs1`, the MIC [1] was ≥ 1020 µg/mL.

Compound `O=C1NC(=S)N/C1=C\c1ccc(F)cc1` has an MEC [2] of 64 µg/mL, an MIC [1] of 512 µg/mL (≈ 2300 µM) and an MIC [3] of 512 µg/mL (≈ 2300 µM). For the same compound, the mortality at 1 mg/ml [4] was 90%, the inhibition [5] was “Active” and the inhibition [6] was “Active”. The fold change (FC) [7] was 4, the fold change (FC) [8] was 3.2 and the MEC [9] was 64 µg/mL.

With `CCn1cc(C(=O)O)c(=O)c2cc(F)c(N3CCNCC3)cc21` [NORFLOXACIN] the MIC [1] was 64 µg/mL (≈ 200 µM).

For `O=C1NC(=O)/C(=C/c2cccs2)N1`, the MIC [1] was ≥ 1020 µg/mL.

With `CN(C)CCCN1c2ccccc2Sc2ccc(Cl)cc21` the inhibition [5] was “Active”.
